A word on the IC50: it is the concentration at which inhibition is half-maximal.

The values that follow come from patent publication US7713994B2 (Wyeth LLC, priority 2005, dated 2010).

This assay addresses T1, cyclin D1/cdk 4 enzyme (Homo sapiens, UniProt P11802).
T1 construct: made in house; host or cells: Sf9 insect cells, recombinant baculovirus
Description: CDK4 ELISA kinase assay (phospho-Rb ser 795 detection). The format is biochemical. The note with it: In Vitro Enzyme Assay, cyclin D1/cdk 4, read-out: CDK4 IC50. The protocol:
• 1. High-binding ELISA microtiter plates (Costar) were coated with 40 μl of the kinase substrate (GST fusion of C-terminal fragment of the retinoblastoma susceptibility gene product) diluted to 10 μg/ml in tris-buffered saline (TBS), overnight at 4° C. • 2. Non-specific binding sites were blocked for 1 hour at 4° C. with Superblock in TBS (Pierce), and the plates rinsed with water. • 3. For the screen, 1.5 μl of test compound (200 μg/ml stock in 20% DMSO/20 mM HEPES, pH 7.5) was added to each well. Final dose of the test compound in the assay was 10 ug/ml. […] The kinase reaction (30 μl) was dispensed into each well. Reactions contained 200 μM ATP, 0.5 mg/ml bovine serum albumin (BSA; Sigma), and 0.5 μl partially purified cyclin D1/cdk 4 enzyme*. The enzyme complex is expressed in insect cells (Sf9) infected with recombinant baculovirus and partially purified using ammonium sulfate fractionation. Reaction volumes were adjusted to 30 μl with kinase assay buffer (50 mM HEPES, pH 7.5, 10 mM MgCl2, 5% glycerol, 10 mM 2-mercaptoethanol). • *: For CDK2 assay, 1.0 μl cyclin E/CDK2 enzyme (diluted 1:1000 in kinase assay buffer) was used. The enzyme is isolated from insect cells (Sf9) infected with recombinant baculovirus and partially purified using ammonium sulfate fractionation. For CDK1 assay, 0.08 μl cyclin B/CDK1 enzyme [New England BioLabs; the enzyme is isolated from insect cells (Sf9) infected with recombinant baculovirus carrying human cdc 2 and human cyclin B] was used.
[…] • 5. Plates were incubated at 30° C. for 1 hour. • 6. The reaction mixture was removed by aspiration and replaced with 250 μl TBS containing 0.1% Tween-20 and 5% nonfat dry milk (blocking buffer). The plates were incubated at 4° C. for 1 hour. • 7. The blocking buffer was removed and replaced with 50 μl of the primary antibody [anti-phospho-Rb ser 795 (New England BioLabs) diluted 1:1000 in blocking buffer]. Incubation was at 4° C. for 16-20 hours. • 8. The wells were rinsed 3 times with 250 μl of TBS containing 0.1% Tween-20 followed by the addition of 50 μl of secondary antibody [anti-rabbit IgG conjugated to horseradish peroxidase (Amersham Life Science) diluted 1:1000 in blocking buffer]. • 9. After a 1 hour incubation at room temperature, the wells were rinsed 3 times with 250 μl of TBS/0.1% Tween 20. • 10. TMB (3,3′,5,5′-tetramethylbenzidine dihydrochloride) substrate solution (100 μl; Pierce) was added to each well and the color development reaction allowed to proceed 5-10 minutes at room temperature with shaking. The reaction was stopped by the addition of 2N sulfuric acid (100 μl) and the absorbance values read at 450 nm in a microplate reader (Molecular Devices). Analysis of Results: • 1. The percentage of the absorbance value in wells containing the test compound relative to control wells (no test agent) was determined. • 2. IC50 values of selected compounds were determined from inhibition curves, after subtracting background values (no substrate).
(In general: An ELISA detects its analyte on a solid surface through an enzyme-linked reagent.)

T1 sequence (P11802 whole entry, species assumed): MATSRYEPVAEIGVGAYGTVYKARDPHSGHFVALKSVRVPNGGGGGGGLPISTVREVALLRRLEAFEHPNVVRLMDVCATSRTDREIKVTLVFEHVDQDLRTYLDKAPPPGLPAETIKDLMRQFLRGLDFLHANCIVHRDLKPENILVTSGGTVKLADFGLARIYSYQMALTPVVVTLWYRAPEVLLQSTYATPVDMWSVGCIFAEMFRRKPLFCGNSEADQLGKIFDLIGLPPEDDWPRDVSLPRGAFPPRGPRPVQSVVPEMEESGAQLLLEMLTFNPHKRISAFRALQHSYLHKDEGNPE
T1 sequence (P24385 whole entry partner, species assumed): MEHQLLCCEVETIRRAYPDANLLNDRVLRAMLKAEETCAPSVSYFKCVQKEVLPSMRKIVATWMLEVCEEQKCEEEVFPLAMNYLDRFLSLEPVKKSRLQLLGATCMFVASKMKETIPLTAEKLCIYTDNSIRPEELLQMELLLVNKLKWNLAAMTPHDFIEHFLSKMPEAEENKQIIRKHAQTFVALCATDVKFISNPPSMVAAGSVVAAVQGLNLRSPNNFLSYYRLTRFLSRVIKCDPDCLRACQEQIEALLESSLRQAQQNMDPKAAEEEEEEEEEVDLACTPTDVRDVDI

Turning to `CS(=O)(=O)Nc1cccc(CNC=C2C(=O)NC(=O)c3ccccc32)c1` [Example 581, N-(3-{[(1,3-Dioxo-2,3-dihydro-1H-isoquinolin-4-ylidenemethyl)-amino]-methyl}-phenyl)-methanesulfonamide], the IC50 was 23.6 µM.
Then `O=C1NC(=O)c2ccccc2C1=CNCc1cccc(NS(=O)(=O)CC(F)(F)F)c1` [Example 582, 2,2,2-Trifluoro-ethanesulfonic acid (3-{[(1,3-dioxo-2,3-dihydro-1H-isoquinolin-4-ylidenemethyl)-amino]-methyl}-phenyl)-amide], with 9.6 µM; and `CCS(=O)(=O)Nc1cccc(CNC=C2C(=O)NC(=O)c3ccccc32)c1` [Example 583, Ethanesulfonic acid (3-{[(1,3-dioxo-2,3-dihydro-1H-isoquinolin-4-ylidenemethyl)-amino]-methyl}-phenyl)-amide], with 17.9 µM.
Then `CCCS(=O)(=O)Nc1cccc(CNC=C2C(=O)NC(=O)c3ccccc32)c1` [Example 584, Propane-1-sulfonic acid (3-{[(1,3-dioxo-2,3-dihydro-1H-isoquinolin-4-ylidenemethyl)-amino]-methyl}-phenyl)-amide], with 19.4 µM; and `CC(=O)Nc1cccc(CNC=C2C(=O)NC(=O)c3ccccc32)c1` [Example 585, N-(3-{[(1,3-Dioxo-2,3-dihydro-1H-isoquinolin-4-ylidenemethyl)-amino]-methyl)-phenyl)-acetamide], with 42.5 µM; and `O=C1NC(=O)c2ccccc2C1=CNCc1cccc(NC(=O)C2CC2)c1` [Example 586, Cyclopropanecarboxylic acid (3-{[(1,3-dioxo-2,3-dihydro-1H-isoquinolin-4-ylidenemethyl)-amino]-methyl}-phenyl)-amide], with 31.3 µM.
Then `O=C1NC(=O)c2ccccc2C1=CNCc1cccc(NC(=O)C2CCC2)c1` [Example 587, Cyclobutanecarboxylic acid (3-{[(1,3-dioxo-2,3-dihydro-1H-isoquinolin-4-ylidenemethyl)-amino]-methyl}-phenyl)-amide], with 43.5 µM.
As for `O=C1NC(=O)c2ccccc2C1=CNCc1ccc(NS(=O)(=O)c2cccs2)cc1` [Example 588, Thiophene-2-sulfonic acid (4-{[(1,3-dioxo-2,3-dihydro-1H-isoquinolin-4-ylidenemethyl)-amino]-methyl}-phenyl)-amide], the IC50 was determined as 37.3 µM.
Then `CS(=O)(=O)Nc1ccc(CNC=C2C(=O)NC(=O)c3ccccc32)cc1` [Example 589], with 36.4 µM; and `O=C1NC(=O)c2ccccc2C1=CNCc1ccc(NS(=O)(=O)Cc2ccccc2)cc1` [Example 590, N-(4{[(1,3-Dioxo-2,3-dihydro-1H-isoquinolin-4-ylidenemethyl)-amino]-methyl}-phenyl)-C-phenyl-methanesulfonamide], with 38.5 µM; and `CCCS(=O)(=O)Nc1ccc(CNC=C2C(=O)NC(=O)c3ccccc32)cc1` [Example 592, Propane-1-sulfonic acid (4{[(1,3-dioxo-2,3-dihydro-1H-isoquinolin-4-ylidenemethyl)-amino]-methyl}-phenyl)-amide], with 29.9 µM.
Regarding `CCN1CCN(c2ccc(NC=C3C(=O)NC(=O)c4ccccc43)cc2)CC1` [Example 595, 4-{[4-(4-Ethyl-piperazin-1-yl)-phenylamino]-methylene}-4H-isoquinoline-1,3-dione], the IC50 was determined as 27.4 µM.
Take `N#CCN1CCN(c2ccc(N/C=C3\C(=O)NC(=O)c4ccccc43)cc2)CC1` [Example 596, (4-{4-[(1,3-Dioxo-2,3-dihydro-1H-isoquinolin-4-ylidenemethyl)-amino]-phenyl}-piperazin-1-yl)-acetonitrile]: the IC50 worked out at 27.7 µM.
For `C=CCN1CCN(c2ccc(NC=C3C(=O)NC(=O)c4ccccc43)cc2)CC1` [Example 597, 4-{[4-(4-Allyl-piperazin-1-yl)-phenylamino]-methylene}-4H-isoquinoline-1,3-dione] the value was 39.2 µM; for `O=C1NC(=O)c2ccccc2C1=CNc1ccc(N2CCN(CCO)CC2)cc1` [Example 598, 4-({4-[4-(2-Hydroxy-ethyl)-piperazin-1-yl]-phenylamino}-methylene)-4H-isoquinoline-1,3-dione], 33.1 µM; for `CCN(CC)CCN1CCN(c2ccc(NC=C3C(=O)NC(=O)c4ccccc43)cc2)CC1` [Example 599, 4-({4-[4-(2-Diethylamino-ethyl)-piperazin-1-yl]-phenylamino}-methylene)-4H-isoquinoline-1,3-dione], 39.7 µM.
Consider `CC(C)N1CCN(c2ccc(NC=C3C(=O)NC(=O)c4ccccc43)cc2)CC1` [Example 600, 4-{[4-(4-Isopropyl-piperazin-1-yl)-phenylamino]-methylene}-4H-isoquinoline-1,3-dione], for which the IC50 is 23.1 µM.
Then `O=C1NC(=O)c2ccccc2C1=CNc1ccc(N2CCN(C3CCCC3)CC2)cc1` [Example 601, 4-{[4-(4-Cyclopentyl-piperazin-1-yl)-phenylamino]-methylene}-4H-isoquinoline-1,3-dione], with 12 µM; and `O=C1NC(=O)c2ccccc2C1=CNc1ccc(N2CCN(CC3CCC3)CC2)cc1` [Example 602, 4-{[4-(4-Cyclobutylmethyl-piperazin-1-yl)-phenylamino]-methylene}-4H-isoquinoline-1,3-dione], with 21.5 µM; and `O=C1NC(=O)c2ccccc2C1=CNCc1cccc(NCC(F)(F)F)c1` [Example 603, 4-{[3-(2,2,2-Trifluoro-ethylamino)-benzylamino]-methylene}-4H-isoquinoline-1,3-dione], with 48.3 µM.
Then `CNc1ccc(CN/C=C2\C(=O)NC(=O)c3ccccc32)cc1` [Example 604, 4-[(4-Methylamino-benzylamino)-methylene]-4H-isoquinoline-1,3-dione], with 23.5 µM; and `O=C1NC(=O)c2ccccc2C1=CNc1ccc(CNS(=O)(=O)CC(F)(F)F)cc1` [Example 605, 2,2,2-Trifluoro-ethanesulfonic acid 4-[(1,3-dioxo-2,3-dihydro-1H-isoquinolin-4-ylidenemethyl)-amino]-benzylamide], with 22.1 µM.
For `CCNS(=O)(=O)c1ccc(CN/C=C2\C(=O)NC(=O)c3ccccc32)cc1` [Example 606, 4-{[(1,3-Dioxo-2,3-dihydro-1H-isoquinolin-4-ylidenemethyl)-amino]-methyl}-N-ethyl-benzenesulfonamide] the value was 21.2 µM.
As for `O=C1NC(=O)c2ccccc2C1=CNCc1ccc(S(=O)(=O)NCc2cccnc2)cc1` [Example 607, 4-{[(1,3-Dioxo-2,3-dihydro-1H-isoquinolin-4-ylidenemethyl)-amino]-methyl}-N-pyridin-3-ylmethyl-benzenesulfonamide], the half-inhibitory concentration (IC50) came out at 45.5 µM.
For `CS(=O)(=O)NCc1ccc(NC=C2C(=O)NC(=O)c3ccccc32)cc1` [Example 612, N-{4-[(1,3-Dioxo-2,3-dihydro-1H-isoquinolin-4-ylidenemethyl)-amino]-benzyl}-methanesulfonamide] the value was 48.9 µM; for `CCS(=O)(=O)NCc1ccc(N/C=C2\C(=O)NC(=O)c3ccccc32)cc1` [Example 613, Ethanesulfonic acid 4-[(1,3-dioxo-2,3-dihydro-1H-isoquinolin-4-ylidenemethyl)-amino]-benzylamide], 33.1 µM.
